# Marks after values point to notes of the source that are not given here.
# Legend:
# Type in all cases: in vivo
# [1] = test system: Puccinia recondita f. sp. tritici; test: Test A: wheat leaf rust, preventive spray on wheat seedlings, visual disease rating; conditions: 100 = 100% disease control, 0 = no control
# Text: (§1) General protocol for preparing test suspensions for Tests A-E: the test compounds were first dissolved in acetone in an amount equal to 3% of the final volume and then suspended at the desired concentration (in ppm) in acetone and purified water (50/50 mix by volume) containing 250 ppm of the surfactant Trem® 014 (polyhydric alcohol esters). The resulting test suspensions were then used in Tests A-E. Spraying a 200 ppm test suspension to the point of run-off on the test plants was the equivalent of a rate of 800 g/ha.
# The test suspension was sprayed to the point of run-off on wheat seedlings. The following day the seedlings were inoculated with a spore suspension of Puccinia recondita f. sp. tritici (the causal agent of wheat leaf rust) and incubated in a saturated atmosphere at 20° C. for 24 h, and then moved to a growth chamber at 20° C. for 6 days, after which time visual disease ratings were made.
# (§2) Results for Tests A-E are given in Table A. In the Table, a rating of 100 indicates 100% disease control and a rating of 0 indicates no disease control (relative to the controls). All results are for compounds tested at 200 ppm except where followed by an asterisk “*” which indicates the compound was tested at 250 ppm. A dash (-) indicates no test results.
# [2] = test system: Blumeria graminis f. sp. tritici; test: Test D: wheat powdery mildew, preventive spray on wheat seedlings, visual disease rating; conditions: 100 = 100% disease control, 0 = no control
# Text: as §1
# The test suspension was sprayed to the point of run-off on wheat seedlings. The following day the seedlings were inoculated with a spore dust of Blumeria graminis f. sp. tritici, also known as Erysiphe graminis f. sp. tritici (the causal agent of wheat powdery mildew) and incubated in a growth chamber at 20° C. for 8 days, after which time visual disease ratings were made.
# as §2
# Septoria tritici = test: Test B: wheat leaf blotch, preventive spray on wheat seedlings, visual disease rating; conditions: 100 = 100% disease control, 0 = no control
# Text: as §1
# (§3) The test suspension was sprayed to the point of run-off on wheat seedlings. The following day the seedlings were inoculated with a spore suspension of Septoria tritici (the causal agent of wheat leaf blotch) and incubated in a saturated atmosphere at 24° C. for 48 h, and then moved to a growth chamber at 20° C. for 19 days, after which time visual disease ratings were made.
# as §2
# Botrytis cinerea = test: Test C: tomato Botrytis, preventive spray on tomato seedlings, visual disease rating; conditions: 100 = 100% disease control, 0 = no control
# Text: as §1
# as §3, with “tomato” for “wheat”, “Botrytis cinerea” for “Septoria tritici”, “tomato Botrytis)” for “wheat leaf blotch)”, “20°” for “24°”, “24°” for “20°”, “3” for “19”
# as §2
# Septoria nodorum = test: Test E: Septoria glume blotch, preventive spray on wheat seedlings, visual disease rating; conditions: 200 ppm test suspension sprayed to run-off on wheat seedlings; 100 = 100% disease control, 0 = no control
# Text: as §1
# as §3, with “nodorum” for “tritici”, “Septoria glume” for “wheat leaf”, “9” for “19”
# as §2
# [3] = 200 ppm test suspension sprayed to run-off on wheat seedlings
# [4] = 200 ppm test suspension sprayed to run-off on tomato seedlings
# [5] = 250 ppm (asterisk) test suspension sprayed to run-off on wheat seedlings
# [6] = 250 ppm (asterisk) test suspension sprayed to run-off on tomato seedlings
Structure (SMILES),"Test A disease control rating [1, 3]","Test D disease control rating [2, 3]",Test B disease control rating (Septoria tritici; [3]),Test C disease control rating (Botrytis cinerea; [4]),Test E disease control rating (Septoria nodorum),"Test A disease control rating [1, 5]","Test D disease control rating [2, 5]",Test B disease control rating (Septoria tritici; [5]),Test C disease control rating (Botrytis cinerea; [6])
CCCCOc1cc(F)c(-c2c(C(O)c3ccc(F)cc3Cl)c(C)nn2C)c(F)c1 (stereo not drawn) [Compound 13],0%,98%,98%,0%,,,,,
Cc1nn(C)c(-c2c(F)cc(/C=N/O)cc2F)c1C(O)c1ccc(F)cc1Cl (stereo not drawn) [Compound 11],86%,69%,98%,15%,0%,,,,
Cc1nn(C)c(-c2c(F)cc(C3CO3)cc2F)c1C(O)c1ccc(F)cc1Cl (stereo not drawn) [Compound 8],90%,27%,95%,30%,0%,,,,
Cc1nn(C)c(-c2c(F)cc(OCC3OCCO3)cc2F)c1C(O)c1ccc(F)cc1Cl (stereo not drawn) [Compound 19],,,,,,100* %,95* %,99* %,100* %
"Cc1nn(C)c(-c2c(F)cc(-n3cccn3)cc2F)c1C(O)c1ccc(F)cc1Cl (stereo not drawn) [Compound 3, α-(2-chloro-4-fluorophenyl)-5-[2,6-difluoro-4-(1H-pyrazol-1-yl)phenyl]-1,3-dimethyl-1H-pyrazole-4-methanol]",68%,81%,,59%,98%,,,,
"Cc1nn(C)c(-c2c(F)cc(OCC3CC3)cc2F)c1C(O)c1ccc(F)cc1Cl (stereo not drawn) [Compound 10, α-(2-chloro-4-fluorophenyl)-5-[4-(cyclopropylmethoxy)-2,6-difluorophenyl]-1,3-dimethyl-1H-pyrazole-4-methanol]",99%,94%,96%,12%,100%,,,,
"Cc1nn(C)c(-c2c(F)cc(OCCC(C)C)cc2F)c1C(O)c1ccc(F)cc1Cl (stereo not drawn) [Compound 9, α-(2-chloro-4-fluorophenyl)-5-[2,6-difluoro-4-(3-methylbutoxy)phenyl]-1,3-dimethyl-1H-pyrazole-4-methanol]",9%,,87%,0%,0%,,21* %,,
Cc1nn(C)c(-c2c(F)cc(-n3ccc(C(F)(F)F)n3)cc2F)c1C(O)c1ccc(F)cc1Cl (stereo not drawn) [Compound 4],0%,0%,,0%,0%,,,,
C#CCOc1cc(F)c(-c2c(C(O)c3ccc(F)cc3Cl)c(C)nn2C)c(F)c1 (stereo not drawn) [Compound 5],100%,99%,99%,98%,,,,,
Cc1nn(C)c(-c2c(F)cc(OCC3CCCO3)cc2F)c1C(O)c1ccc(F)cc1Cl (stereo not drawn) [Compound 15],,,,,,98* %,95* %,100* %,98* %
Cc1nn(C)c(-c2c(F)cc(/C=C/C3CC3)cc2F)c1C(O)c1ccc(F)cc1Cl (stereo not drawn) [Compound 1],68%,98%,,0%,0%,,,,
C=CCOc1cc(F)c(-c2c(C(O)c3ccc(F)cc3Cl)c(C)nn2C)c(F)c1 (stereo not drawn) [Compound 6],99%,95%,99%,99%,,,,,
Cc1nn(C)c(-c2c(F)cc(C#CC3CC3)cc2F)c1C(O)c1ccc(F)cc1Cl (stereo not drawn) [Compound 2],95%,98%,,98%,100%,,,,
CO/N=C/c1cc(F)c(-c2c(C(O)c3ccc(F)cc3Cl)c(C)nn2C)c(F)c1 (stereo not drawn) [Compound 14],100%,95%,99%,39%,,,,,

# Reference: US9961897B2, “Fungicidal pyrazoles” (E. I. DU PONT DE NEMOURS AND COMPANY, priority 2013, dated 2018)
